The test system of data set [1] is Hepatitis C virus. Kind of data set: Inhibition of HCV 1b NS5B polymerase by microbeta scintillation counter. Further details: species or system Hepatitis C virus subtype 1b.
Data set [2] can be described thus: Metabolic stability in human liver microsomes at 1 uM.
A short description of data set [3]: Cytotoxicity against human Huh7/C24 cells after 72 hrs […]. Type of data set: cell-based, Huh-7.
Data set [4] deals with Hepatitis C virus. The experiment in a line: Antiviral activity against HCV 1b infected in human Huh7/C24 cells after 72 hrs by replicon assay. Type of data set: functional, organism-based, Hepacivirus hominis. The conditions noted are these: genotype 1b, Huh-7, 72 h. In general terms: A replicon is a self-replicating genome or part of one, used to study replication in cells.

Data set [5] can be described thus: Metabolic stability in cynomolgus monkey liver microsomes at 1 uM.
Data set [6] is described as follows: Apparent permeability from apical to basolateral side in human Caco-2 cell membrane at 10 uM.
Data set [7] can be described thus: Metabolic stability in human liver microsomes assessed as compound remaining at 1 uM after 60 mins. Type of data set: ADME, Microsome. The conditions noted are these: read-out: Stability.
Data set [8] is described as follows: Metabolic stability in cynomolgus monkey liver microsomes assessed as compound remaining at 1 uM after 60 mins. To be noted: read-out: Stability. Type of data set: ADME, Macaca fascicularis, Microsome.
For data set [9], the system named is Cynomolgus monkey. Kind of data set: AUC (0 to infinity) in cynomolgus monkey at 1 mg/kg, po. Type of data set: ADME, organism-based, Macaca fascicularis, Plasma. Further details: time infinity, dose 1 mg/kg, route oral. To be noted: in vivo.
The subject of data set [10] is Cynomolgus monkey. Kind of data set: Hepatic blood flow in cynomolgus monkey. Type of data set: ADME, organism-based, Macaca fascicularis, Liver.
Data set [11] is described as follows: Fabs in cynomolgus monkey. Type of data set: ADME, organism-based, Macaca fascicularis. To be noted: in vivo, read-out: Fabs.
The subject of data set [12] is Cynomolgus monkey. Kind of data set: AUC (0 to infinity) in cynomolgus monkey at 1 mg/kg, iv. The arrangement: time infinity, dose 1 mg/kg, route intravenous. The conditions noted are these: in vivo. Type of data set: ADME, organism-based, Macaca fascicularis, Plasma.
A short description of data set [13]: Oral bioavailability in cynomolgus monkey at 1 mg/kg. Type of data set: ADME, organism-based, Macaca fascicularis. To be noted: in vivo.

What is called IC50 is the point on the concentration scale where inhibition reaches its midpoint. As a reminder, the half-life is the time needed for the level to fall by half in the phase considered. As a reminder, the CC50 is the concentration at which the toxic effect on the cells reaches its halfway point. Usually EC50 stands for the midpoint of the concentration-response curve. In the data set on Hepatitis C virus [1], `CN(c1ccc2c(c1)S(=O)(=O)N=C(C1=C(O)C3CCCN3N(CCC(C)(C)C)C1=O)N2)S(C)(=O)=O` (configuration not stated) registered an IC50 of 160 nM. For the same compound, the half-life at 1 µM in data set [2] (liver microsomes) was greater than 60 min; in data set [5] (liver microsomes) it was 17 min. The half-maximal cytotoxic concentration (CC50) at 72 h in data set [3] is greater than 33000 nM. The EC50 with Hepatitis C virus [4] is 3600 nM.
A word on the Papp A→B: it is how fast a substance crosses the layer from the apical side. `CS(=O)(=O)Nc1ccc2c(c1)S(=O)(=O)N=C(C1=C(O)C3CCCCN3N(Cc3ccc(F)cc3)C1=O)N2` (configuration not stated): half-maximal inhibition in the data set with Hepatitis C virus [1] (IC50) was put at 16 nM. For the same compound, the half-life at 1 µM in data set [2] (microsomes) and in data set [5] (microsomes) was greater than 60 min throughout. In addition, in data set [3], the CC50 at 72 h is greater than 1000 nM. Also, in the data set on Hepatitis C virus [4], the EC50 came to 300 nM. Besides, in data set [6], the Papp A→B at 10 µM is 0.1 ×10⁻⁶ cm/s. Moreover, the figures for the remaining at 1 h, 1 µM in data set [7] and in data set [8] were 102% and 100%, respectively.
Regarding `CS(=O)(=O)Nc1ccc2c(c1)S(=O)(=O)N=C(C1=C(O)C3CCCN3N(Cc3ccc(F)cc3)C1=O)N2` (configuration not stated), in the data set with Hepatitis C virus [1], the IC50 is less than 10 nM. Further, the half-life at 1 µM in data set [2] (liver microsomes) and in data set [5] (liver microsomes) was greater than 60 min in each case. Further, the CC50 at 72 h in data set [3] is greater than 1000 nM. The same compound showed an EC50 with Hepatitis C virus [4] of 190 nM. Further, in data set [6], the Papp A→B at 10 µM was determined as 0.2 ×10⁻⁶ cm/s. Besides, the figures for the remaining at 1 h, 1 µM in [7] and in data set [8] were 87% and 94%, respectively.
Compound `CC(C)(C)CCN1C(=O)C(C2=NS(=O)(=O)c3cc(NS(C)(=O)=O)ccc3N2)=C(O)C2CCCCN21` (configuration not stated) yielded an IC50 with Hepatitis C virus [1] of 41 nM. The half-life at 1 µM was 52 min in [2] (liver microsomes) and 18 min in data set [5] (liver microsomes). For the same compound, in data set [3], the CC50 at 72 h is greater than 33000 nM. For the same compound, the midpoint of the response with Hepatitis C virus [4], the EC50, lay at 110 nM. Besides, the Papp A→B at 10 µM in data set [6] amounted to 0.31 ×10⁻⁶ cm/s.
The AUC is concentration integrated over time. The term bioavailability denotes the share of a dose that reaches the circulation, judged against a reference dose that is usually intravenous. In the data set on Hepatitis C virus [1], `CC(C)(C)CCN1C(=O)C(C2=NS(=O)(=O)c3cc(NS(C)(=O)=O)ccc3N2)=C(O)C2CCCN21` (configuration not stated) registered an IC50 of less than 10 nM. The half-life at 1 µM is 59 min in data set [2] (microsomes) and 7.5 min in data set [5] (microsomes). Further, the AUC with Cynomolgus monkey [9] is 344 ng·h/mL; with Cynomolgus monkey [12] it was 5180 ng·h/mL. Also, the 50% cytotoxic concentration (CC50) at 72 h in [3] was greater than 1000 nM. For the same compound, the half-maximal effective concentration (EC50) in the data set with Hepatitis C virus [4] came to 34 nM. Besides, the QH in the data set with Cynomolgus monkey [10] was 44 mL/min/kg. Moreover, the Fa in data set [11] turned out to be 8%. In addition, the Papp A→B at 10 µM in data set [6] was found to be 0.44 ×10⁻⁶ cm/s. The compound further gave a bioavailability in [13] of 7%.
The compound `CC(C)CCN1C(=O)C(C2=NS(=O)(=O)c3cc(NS(C)(=O)=O)ccc3N2)=C(O)C2CCCN21` (configuration not stated) returned an IC50 in the data set on Hepatitis C virus [1] of 12 nM. The figures for the half-life at 1 µM in [2] (microsomes) and in [5] (microsomes) were greater than 60 min and 63 min, respectively. Besides, in data set [3], the CC50 at 72 h is greater than 1000 nM. Besides, the EC50 in the data set on Hepatitis C virus [4] stood at 160 nM. In data set [6], the Papp A→B at 10 µM was 0.2 ×10⁻⁶ cm/s. In addition, in data set [7], the remaining at 1 h, 1 µM turned out to be 65%.
On to `CS(=O)(=O)Nc1ccc2c(c1)S(=O)(=O)N=C(c1c(O)c3cccn3n(Cc3ccc(F)cc3)c1=O)N2`, for which the IC50 in the data set on Hepatitis C virus [1] is less than 10 nM. The half-life at 1 µM in [2] (liver microsomes) and in data set [5] (liver microsomes) was greater than 60 min in each case. In data set [3], the CC50 at 72 h is greater than 1000 nM. The compound also displayed a concentration for a half-maximal effect (EC50) with Hepatitis C virus [4] of 12 nM. In [7], the remaining at 1 h, 1 µM came out at 86%.
On to `CC(C)(C)CCN1C(=O)C(C2=NS(=O)(=O)c3cc(NS(C)(=O)=O)ccc3N2)=C(O)C2(C)CCCN12` (configuration not stated), for which the IC50 in the data set on Hepatitis C virus [1] amounted to 180 nM. The half-life at 1 µM was 4.9 min in data set [2] (liver microsomes) and 10 min in data set [5] (liver microsomes). The 50% cytotoxic concentration (CC50) at 72 h in [3] was greater than 33000 nM. This compound had an EC50 in the data set on Hepatitis C virus [4] of 1100 nM. In addition, in [6], the Papp A→B at 10 µM came to 0.6 ×10⁻⁶ cm/s.

Values taken from ChEMBL document CHEMBL1141685, “Hexahydro-pyrrolo- and hexahydro-1H-pyrido[1,2-b]pyridazin-2-ones as potent inhibitors of HCV NS5B polymerase” (Bioorg Med Chem Lett, 2008).
